The kinase profiling compilation of Christmann-Franck et al. (2016)

Assays:
Assay in all cases: radiometric filter-binding kinase assay, Kinase HotSpot
Conditions in all cases: compound 0.5 µM; ATP 10 µM
[1] = molecular target: ALK (human) (UniProt Q9UM73)
[2] = molecular target: CAMK1 (human) (UniProt Q14012)
[3] = molecular target: CDK5 CDK5R1 p25 (human) (UniProt Q00535+Q15078)
[4] = molecular target: CLK2 (human) (UniProt P49760)
[5] = molecular target: CLK3 (human) (UniProt P49761)
[6] = molecular target: CLK4 (human) (UniProt Q9HAZ1)
[7] = molecular target: CSF1R (human) (UniProt P07333)
[8] = molecular target: CSNK1G3 (human) (UniProt Q9Y6M4)
[9] = molecular target: DSTYK (human) (UniProt Q6XUX3)
[10] = molecular target: DYRK4 (human) (UniProt Q9NR20)
[11] = molecular target: EPHB2 (human) (UniProt P29323)
[12] = molecular target: ERBB4 (human) (UniProt Q15303)
[13] = molecular target: FER (human) (UniProt P16591)
[14] = molecular target: HIPK2 (human) (UniProt Q9H2X6)
[15] = molecular target: IRAK4 (human) (UniProt Q9NWZ3)
[16] = molecular target: JAK3 JH1 JH2 (human) (UniProt P52333)
[17] = molecular target: KDR (human) (UniProt P35968)
[18] = molecular target: LTK (human) (UniProt P29376)
LTK (human), sequence (P29376 whole entry, looked up): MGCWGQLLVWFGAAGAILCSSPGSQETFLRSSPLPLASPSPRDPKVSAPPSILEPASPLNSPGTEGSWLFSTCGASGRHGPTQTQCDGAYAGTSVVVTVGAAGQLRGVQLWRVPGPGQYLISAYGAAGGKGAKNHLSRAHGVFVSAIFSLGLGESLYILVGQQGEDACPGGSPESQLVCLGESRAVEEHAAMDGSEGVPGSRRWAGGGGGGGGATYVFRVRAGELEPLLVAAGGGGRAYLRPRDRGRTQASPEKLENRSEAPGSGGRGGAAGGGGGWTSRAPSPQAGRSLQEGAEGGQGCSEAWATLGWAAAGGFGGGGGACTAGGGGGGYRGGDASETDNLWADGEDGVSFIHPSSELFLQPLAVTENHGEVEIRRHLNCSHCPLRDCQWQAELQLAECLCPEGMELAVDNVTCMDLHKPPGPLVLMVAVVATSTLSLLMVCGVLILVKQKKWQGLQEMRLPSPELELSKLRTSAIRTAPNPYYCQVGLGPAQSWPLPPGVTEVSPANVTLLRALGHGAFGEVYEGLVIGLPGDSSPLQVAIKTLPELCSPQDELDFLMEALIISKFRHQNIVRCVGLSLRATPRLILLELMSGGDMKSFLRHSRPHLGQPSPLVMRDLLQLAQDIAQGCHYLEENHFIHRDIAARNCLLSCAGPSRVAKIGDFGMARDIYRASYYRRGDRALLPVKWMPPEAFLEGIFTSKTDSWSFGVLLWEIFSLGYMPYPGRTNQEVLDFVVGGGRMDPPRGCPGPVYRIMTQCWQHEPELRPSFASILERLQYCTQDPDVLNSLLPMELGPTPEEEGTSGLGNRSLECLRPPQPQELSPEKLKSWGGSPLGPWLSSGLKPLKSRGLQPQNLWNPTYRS

[19] = molecular target: MAP2K2 (human) (UniProt P36507)
[20] = molecular target: MAP3K14 (human) (UniProt Q99558)
[21] = molecular target: MAP3K8 (human) (UniProt P41279)
MAP3K8 (human), sequence (P41279 whole entry, looked up): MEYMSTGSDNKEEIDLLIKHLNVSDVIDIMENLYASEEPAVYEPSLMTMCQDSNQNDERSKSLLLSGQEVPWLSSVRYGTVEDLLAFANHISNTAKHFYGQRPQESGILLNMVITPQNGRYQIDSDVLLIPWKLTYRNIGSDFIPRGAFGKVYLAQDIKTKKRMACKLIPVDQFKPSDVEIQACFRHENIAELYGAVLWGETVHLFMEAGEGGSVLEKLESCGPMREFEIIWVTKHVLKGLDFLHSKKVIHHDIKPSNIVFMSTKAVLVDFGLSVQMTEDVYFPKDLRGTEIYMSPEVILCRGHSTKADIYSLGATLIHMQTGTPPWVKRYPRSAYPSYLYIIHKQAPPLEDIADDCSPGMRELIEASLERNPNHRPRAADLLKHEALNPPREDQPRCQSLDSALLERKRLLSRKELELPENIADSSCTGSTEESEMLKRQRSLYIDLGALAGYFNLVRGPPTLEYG

[22] = molecular target: MAPK10 (human) (UniProt P53779)
[23] = molecular target: MAPK9 (human) (UniProt P45984)
MAPK9 (human), sequence (P45984 whole entry, looked up): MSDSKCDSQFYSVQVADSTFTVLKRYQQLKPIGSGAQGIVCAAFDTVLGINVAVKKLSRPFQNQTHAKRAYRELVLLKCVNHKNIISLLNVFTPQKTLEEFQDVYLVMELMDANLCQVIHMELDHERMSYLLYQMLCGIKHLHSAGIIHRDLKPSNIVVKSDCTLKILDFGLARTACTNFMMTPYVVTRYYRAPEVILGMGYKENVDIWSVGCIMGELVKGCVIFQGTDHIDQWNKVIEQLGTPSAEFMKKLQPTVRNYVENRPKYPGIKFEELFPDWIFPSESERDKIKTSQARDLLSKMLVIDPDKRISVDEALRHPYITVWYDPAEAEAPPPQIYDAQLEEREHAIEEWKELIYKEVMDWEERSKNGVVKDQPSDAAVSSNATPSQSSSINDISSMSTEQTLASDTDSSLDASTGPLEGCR

[24] = molecular target: MARK4 (human) (UniProt Q96L34)
[25] = molecular target: MST1R (human) (UniProt Q04912)
MST1R (human), sequence (Q04912 whole entry, looked up): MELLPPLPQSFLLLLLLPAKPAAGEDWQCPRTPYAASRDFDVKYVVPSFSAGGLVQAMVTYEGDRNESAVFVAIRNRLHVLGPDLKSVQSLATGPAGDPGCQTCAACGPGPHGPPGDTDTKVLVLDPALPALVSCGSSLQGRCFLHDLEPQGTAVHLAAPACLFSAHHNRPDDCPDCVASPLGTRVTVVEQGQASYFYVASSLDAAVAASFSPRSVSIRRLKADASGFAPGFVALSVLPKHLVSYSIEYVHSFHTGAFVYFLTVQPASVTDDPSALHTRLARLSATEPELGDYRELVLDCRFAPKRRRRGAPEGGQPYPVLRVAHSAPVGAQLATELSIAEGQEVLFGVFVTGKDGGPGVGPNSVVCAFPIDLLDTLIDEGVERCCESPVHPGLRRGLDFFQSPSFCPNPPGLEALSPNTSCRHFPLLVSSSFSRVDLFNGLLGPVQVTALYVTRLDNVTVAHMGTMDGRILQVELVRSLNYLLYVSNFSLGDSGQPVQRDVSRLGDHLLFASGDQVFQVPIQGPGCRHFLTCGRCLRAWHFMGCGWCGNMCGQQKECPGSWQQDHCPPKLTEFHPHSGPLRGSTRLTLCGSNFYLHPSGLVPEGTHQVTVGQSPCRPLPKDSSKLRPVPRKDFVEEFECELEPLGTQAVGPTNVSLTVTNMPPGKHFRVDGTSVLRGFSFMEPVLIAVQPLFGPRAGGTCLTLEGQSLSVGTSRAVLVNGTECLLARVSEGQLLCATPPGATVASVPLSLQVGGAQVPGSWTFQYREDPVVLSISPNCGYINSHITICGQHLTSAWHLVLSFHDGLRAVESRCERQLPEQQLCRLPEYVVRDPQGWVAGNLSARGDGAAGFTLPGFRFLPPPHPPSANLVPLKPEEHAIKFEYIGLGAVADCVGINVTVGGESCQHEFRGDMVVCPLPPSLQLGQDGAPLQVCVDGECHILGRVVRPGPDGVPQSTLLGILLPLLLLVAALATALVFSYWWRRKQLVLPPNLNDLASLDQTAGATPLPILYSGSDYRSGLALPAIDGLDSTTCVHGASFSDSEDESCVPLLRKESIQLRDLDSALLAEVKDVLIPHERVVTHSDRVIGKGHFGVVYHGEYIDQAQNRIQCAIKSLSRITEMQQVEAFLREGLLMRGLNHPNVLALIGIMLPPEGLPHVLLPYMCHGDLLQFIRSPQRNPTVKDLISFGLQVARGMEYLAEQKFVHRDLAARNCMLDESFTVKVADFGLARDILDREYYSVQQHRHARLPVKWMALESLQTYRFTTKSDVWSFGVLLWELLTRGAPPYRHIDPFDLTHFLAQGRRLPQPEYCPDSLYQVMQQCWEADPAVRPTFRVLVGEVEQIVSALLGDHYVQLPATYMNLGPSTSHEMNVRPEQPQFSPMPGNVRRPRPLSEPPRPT

[26] = molecular target: MST4 (human) (UniProt Q9P289)
MST4 (human), sequence (Q9P289 whole entry, looked up): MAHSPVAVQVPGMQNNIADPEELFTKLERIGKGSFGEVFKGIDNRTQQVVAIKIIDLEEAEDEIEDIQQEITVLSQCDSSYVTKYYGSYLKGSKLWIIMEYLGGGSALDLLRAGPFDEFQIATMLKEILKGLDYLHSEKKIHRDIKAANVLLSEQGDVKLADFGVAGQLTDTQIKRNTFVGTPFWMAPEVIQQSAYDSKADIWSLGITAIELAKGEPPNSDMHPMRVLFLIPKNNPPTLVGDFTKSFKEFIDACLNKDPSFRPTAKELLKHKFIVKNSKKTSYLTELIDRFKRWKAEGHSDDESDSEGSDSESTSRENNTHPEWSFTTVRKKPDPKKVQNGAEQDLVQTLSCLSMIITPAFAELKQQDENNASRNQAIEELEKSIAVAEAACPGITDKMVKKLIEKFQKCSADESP

[27] = molecular target: NEK7 (human) (UniProt Q8TDX7)
[28] = molecular target: NUAK1 (human) (UniProt O60285)
[29] = molecular target: PAK4 (human) (UniProt O96013)
PAK4 (human), sequence (O96013 whole entry, looked up): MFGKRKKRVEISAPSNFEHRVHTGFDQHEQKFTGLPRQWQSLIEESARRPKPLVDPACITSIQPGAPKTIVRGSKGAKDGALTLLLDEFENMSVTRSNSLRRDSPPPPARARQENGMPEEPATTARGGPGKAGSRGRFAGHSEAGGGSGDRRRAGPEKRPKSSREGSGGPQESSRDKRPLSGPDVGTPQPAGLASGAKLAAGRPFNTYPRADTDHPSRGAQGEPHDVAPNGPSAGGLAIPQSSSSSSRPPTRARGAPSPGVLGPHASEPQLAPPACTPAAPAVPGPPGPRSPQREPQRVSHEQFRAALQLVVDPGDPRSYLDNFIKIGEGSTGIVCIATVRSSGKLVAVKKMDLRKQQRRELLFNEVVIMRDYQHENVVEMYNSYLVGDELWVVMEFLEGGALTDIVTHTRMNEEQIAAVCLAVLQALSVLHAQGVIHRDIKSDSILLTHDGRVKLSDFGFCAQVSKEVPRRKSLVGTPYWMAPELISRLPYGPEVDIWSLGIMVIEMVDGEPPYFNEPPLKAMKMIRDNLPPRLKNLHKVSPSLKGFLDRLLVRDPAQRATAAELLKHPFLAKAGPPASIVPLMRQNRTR

[30] = molecular target: PAK6 (human) (UniProt Q9NQU5)
[31] = molecular target: PHKG2 (human) (UniProt P15735)
[32] = molecular target: PNCK (human) (UniProt Q6P2M8)
[33] = molecular target: PRKX (human) (UniProt P51817)
[34] = molecular target: RAF1 (human) (UniProt P04049)
[35] = molecular target: ROCK1 (human) (UniProt Q13464)
[36] = molecular target: RPS6KB2 (human) (UniProt Q9UBS0)
[37] = molecular target: STK11 (human) (UniProt Q15831)
[38] = molecular target: TAOK2 (human) (UniProt Q9UL54)
[39] = molecular target: TEK (human) (UniProt Q02763)
[40] = molecular target: TGFBR1 (human) (UniProt P36897)
[41] = molecular target: ULK2 (human) (UniProt Q8IYT8)
[42] = molecular target: ZAP70 (human) (UniProt P43403)

CDK5 CDK5R1 p25 (human), sequence (Q00535 whole entry, looked up): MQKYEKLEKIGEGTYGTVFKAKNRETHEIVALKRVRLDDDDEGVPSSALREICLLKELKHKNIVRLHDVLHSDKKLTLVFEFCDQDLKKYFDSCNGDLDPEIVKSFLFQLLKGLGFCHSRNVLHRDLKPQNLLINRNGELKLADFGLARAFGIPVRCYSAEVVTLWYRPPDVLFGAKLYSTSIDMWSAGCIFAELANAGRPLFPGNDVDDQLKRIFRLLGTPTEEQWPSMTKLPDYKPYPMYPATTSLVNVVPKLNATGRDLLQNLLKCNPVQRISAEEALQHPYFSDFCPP
CDK5 CDK5R1 p25 (human), sequence (Q15078 whole entry, looked up): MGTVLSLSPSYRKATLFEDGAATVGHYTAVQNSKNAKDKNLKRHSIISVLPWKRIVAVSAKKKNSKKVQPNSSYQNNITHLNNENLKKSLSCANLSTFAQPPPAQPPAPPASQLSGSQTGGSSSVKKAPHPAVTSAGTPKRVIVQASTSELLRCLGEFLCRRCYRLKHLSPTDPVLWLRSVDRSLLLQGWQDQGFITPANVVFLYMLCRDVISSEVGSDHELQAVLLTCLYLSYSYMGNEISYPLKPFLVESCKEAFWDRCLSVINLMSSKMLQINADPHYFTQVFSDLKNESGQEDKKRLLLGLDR

For COc1ccc(CNC(=O)Nc2ncc([N+](=O)[O-])s2)cc1, the residual activity [1] was 100%, the residual activity [2] was 101% and the residual activity [3] was 97.7%. For the same compound, the residual activity [4] was 97.4%, the residual activity [5] was 93% and the residual activity [6] was 92.8%. The residual activity [7] was 99.2%, the residual activity [8] was 90.4% and the residual activity [9] was 96.2%. The residual activity [10] was 97.7%, the residual activity [11] was 88.4% and the residual activity [12] was 95.2%. It also gave a residual activity [13] of 101%, a residual activity [14] of 103% and a residual activity [15] of 101%. It also gave a residual activity [16] of 105%, a residual activity [17] of 85.7% and a residual activity [18] of 101%. The residual activity [19] was 73.5%, the residual activity [20] was 84.2% and the residual activity [21] was 96.2%. The residual activity [22] was 96.1%, the residual activity [23] was 135% and the residual activity [24] was 92.2%. The residual activity [25] was 98.4%, the residual activity [26] was 113% and the residual activity [27] was 99.4%. For the same compound, the residual activity [28] was 99.7%, the residual activity [29] was 115% and the residual activity [30] was 106%. For the same compound, the residual activity [31] was 105%, the residual activity [32] was 99.3% and the residual activity [33] was 72.1%. For the same compound, the residual activity [34] was 94%, the residual activity [35] was 102% and the residual activity [36] was 93.6%. The residual activity [37] was 100%, the residual activity [38] was 98.5% and the residual activity [39] was 94%. For the same compound, the residual activity [40] was 95.8%, the residual activity [41] was 93.4% and the residual activity [42] was 102%.
O=C(Nc1cccc(Nc2cc(Nc3cccc(C(F)(F)F)c3)ncn2)c1)C1CC1 was tested, and the residual activity [1] was 112%, the residual activity [2] was 108% and the residual activity [3] was 99.5%. It also gave a residual activity [4] of 97.3%, a residual activity [5] of 102% and a residual activity [6] of 97.3%. The residual activity [7] was 99.9%, the residual activity [8] was 107% and the residual activity [9] was 102%. The residual activity [10] was 98%, the residual activity [11] was 88.6% and the residual activity [12] was 99.2%. It also gave a residual activity [13] of 102%, a residual activity [14] of 107% and a residual activity [15] of 104%. For the same compound, the residual activity [16] was 106%, the residual activity [17] was 101% and the residual activity [18] was 96.8%. It also gave a residual activity [19] of 101%, a residual activity [20] of 77.9% and a residual activity [21] of 98.4%. For the same compound, the residual activity [22] was 83.4%, the residual activity [23] was 98.2% and the residual activity [24] was 101%. It also gave a residual activity [25] of 107%, a residual activity [26] of 98.9% and a residual activity [27] of 97.8%. The residual activity [28] was 102%, the residual activity [29] was 103% and the residual activity [30] was 99.3%. The residual activity [31] was 101%, the residual activity [32] was 101% and the residual activity [33] was 107%. It also gave a residual activity [34] of 98.4%, a residual activity [35] of 98.7% and a residual activity [36] of 103%. It also gave a residual activity [37] of 100%, a residual activity [38] of 103% and a residual activity [39] of 101%. It also gave a residual activity [40] of 97.4%, a residual activity [41] of 102% and a residual activity [42] of 93%.
In the case of CC(=O)O/N=C1\C(=C2\C(=O)Nc3cc(Br)ccc32)Nc2ccccc21, the residual activity [1] is reported as 86.7%, the residual activity [2] is reported as 102% and the residual activity [3] is reported as 51.4%. For the same compound, the residual activity [4] was 96.8%, the residual activity [5] was 75.1% and the residual activity [6] was 94.1%. For the same compound, the residual activity [7] was 84%, the residual activity [8] was 101% and the residual activity [9] was 81.1%. The residual activity [10] was 96.7%, the residual activity [11] was 81.4% and the residual activity [12] was 101%. It also gave a residual activity [13] of 86.4%, a residual activity [14] of 99.1% and a residual activity [15] of 94.1%. It also gave a residual activity [16] of 107%, a residual activity [17] of 74.2% and a residual activity [18] of 83.3%. The residual activity [19] was 83.1%, the residual activity [20] was 75.7% and the residual activity [21] was 104%. For the same compound, the residual activity [22] was 83%, the residual activity [23] was 90.5% and the residual activity [24] was 77.6%. The residual activity [25] was 92.8%, the residual activity [26] was 78.7% and the residual activity [27] was 91.9%. It also gave a residual activity [28] of 49.4%, a residual activity [29] of 92.7% and a residual activity [30] of 74.8%. For the same compound, the residual activity [31] was 96.6%, the residual activity [32] was 96.3% and the residual activity [33] was 99.9%. It also gave a residual activity [34] of 100%, a residual activity [35] of 94.6% and a residual activity [36] of 83.7%. The residual activity [37] was 73.6%, the residual activity [38] was 84.4% and the residual activity [39] was 106%. It also gave a residual activity [40] of 101%, a residual activity [41] of 92.2% and a residual activity [42] of 102%.
